Assays:
Format in all cases: cell-based
Conditions in all cases: after 10, 20, 40 and 60 minutes at all dilutions 1:100, 1:200, 1:400, 1:800
Pseudomonas aeruginosa = test: Antimicrobial screening by agar dilution, Ps. Aeroqonaza
Protocol: (§1) The antimicrobial properties of the 1-[4,5-bis(4-bromophenyl)-1-hexyl-1H-imidazol-2-yl]-2-naphthol was studied by the method of agar dilution. Test solutions of each compound was prepared in concentration of 1% using dimethylformamide as a solvent then they were diluted in physiological solution to obtain the final experimental dilutions 1:100, 1:200, 1:400, 1:800. The effect of these substances was compared with furacillin in a controlled study. The testing microbes used were gram positive bacteria Staphylococcus aureus, gram negative bacteria Pseudomonas aeruginosa and Escherichia coli and Candida albicans fungi were taken. The experiments used for this survey were meat-pentonlu agar (EPA) for cultivation of bacteria and Saburo environment for fungi. Each experiment used 1 ml of test solution on each plate 500 min. Add 2 drops of emulsified with microbes feel. All experimental samples were taken from the agar after 10, 20, 40, 60 minutes in the environment on the basis of Patrk planted. Bacteria were cultivated at a temperature of 37° C. for 1 day and the mushroom was kept in a thermostat for […] at a temperature of 28° C. Then results were checked.

Staphylococcus aureus = test: Antimicrobial screening by agar dilution, St. Aereus
Protocol: as §1

Escherichia coli = test: Antimicrobial screening by agar dilution, E. Coli
Protocol: as §1

Candida albicans = test: Antimicrobial screening by agar dilution, Candida albicans
Protocol: as §1

Measured: inhibition activity

CCCCCCn1c(-c2c(O)ccc3ccccc23)nc(-c2ccc(Br)cc2)c1-c1ccc(Br)cc1 [1-[4,5-bis(4-bromophenyl)-1-hexyl-1H-imidazol-2-yl]-2-naphthol]
highest inhibition activity: all assays above
